# Values quoted from earlier work as cited in patent US20100120727A1, “Eflornithine Prodrugs, Conjugates and Salts, and Methods of Use Thereof” (Kyphia Pharmaceuticals, Inc., priority 2008, published 2010).
# Read-outs that look alike come from different tables or passages of the source.
# Columns and labels:
# [1] = not given; remark: listed apart in the source
# [2] = not given; remark: listed apart in the source
# tumor putrescine levels = settings: DFMO infusion
# MCA sarcoma = settings: in vivo
structure (smiles),measurement,setting,value
"CC(=O)Oc1ccccc1C(=O)O [Aspirin, acetylsalicylic acid]",solubility in water,,very low solubility in water
"CC1=C(CC(=O)O)c2cc(F)ccc2/C1=C\c1ccc([S+](C)[O-])cc1 (stereo not shown) [Sulindac, (Z)-5-Fluoro-2-methyl-1-((4 (methylsulfinyl)phenyl)methylene)1H-indene-3-acetic acid]","mild gastrointestinal effects, share of patients",[1]; abdominal pain and nausea most frequent,~20%
same,"skin rash and pruritus, share of patients","[1]; human, in vivo",5%
same,time to peak plasma levels,[2]; administered with food,3 to 4 h
same,fraction of the drug absorbed,[2]; after oral administration,about 90%
same,time to peak plasma levels,[2]; fasting patients,about 2 hours
CC1=C(CC(=O)O)c2cc(F)ccc2/C1=C\c1ccc(S(C)(=O)=O)cc1 [Sulindac sulfone],COX-inhibitory activity,COX,lacks COX-inhibitory activity
CSc1ccc(/C=C2/C(C)=C(CC(=O)O)c3cc(F)ccc32)cc1 [sulfide metabolite],mean half-life,[2]; in vivo,16.4 h
"NCCCC(N)(C(=O)O)C(F)F (racemic) [DFMO, 2-(Difluoromethyl)-DL-ornithine]",decrease in tumor putrescine levels,tumor putrescine levels,90%
same,tumor growth rate and regression,MCA sarcoma,reduces the growth rate of an MCA sarcoma but does not produce tumor regression
